Measured values taken from patent publication US8957114B2, “Formulations, salts and polymorphs of transnorsertraline and uses thereof” (Sunovion Pharmaceuticals Inc., priority 2009, dated 2015).
Values belong to the compound of their own block, whether it stands above or below them.

Assays:
Type in all cases: physicochemical
[1] = Solid stability of transnorsertraline salts (HPLC impurities); details: HDPE container
Protocol: Salts of transnorsertraline were tested for solid stability under various conditions. Solid samples of the HCl salt were placed in double-polyehylene lined high density polyethylene (HDPE) containers closed with HDPE lids and stored at 25° C./60% relative humidity or 40° C./75% relative humidity. Samples were analyzed by HPLC.

[2] = Polymorphic conversion of anhydrous transnorsertraline hydrochloride to hydrate in aqueous media, in-situ Raman monitoring; details: for form conversion completed / start of form conversion to hydrate / end of form conversion: 37° C.
Protocol: The study of the conversion of anhydrous transnorsertraline hydrochloride to the hydrate form in aqueous media was investigated, using in-situ Raman monitoring.
Raman spectroscopy was performed using a Kaiser Optical Systems Inc. dispersive RamanRXN3 for on-line or in-situ reaction monitoring. The RamanRXN3 system uses an excitation wavelength of 785 nm, with an external cavity-stabilized, diode laser. All spectra were acquired using a ¼″ immersion probe with approximately 100 mW of laser power at the tip of the probe. Different exposure times and numbers of spectrum accumulations were used for the analysis of the two dry samples. An exposure time of 4 seconds with 2 accumulations was used for the monitoring of all form conversions experiments. Wavelength and laser wavelength calibration were performed using an internal neon standard, and diamond Raman shift standard, respectively. The intensity calibration was performed using a Kaiser Raman calibration accessory.
Regions 660-715 cm^−1 and 1430-1490 cm^−1 in particular show little overlapping of the peaks characteristic of each form. Experimental results confirmed that no peaks in the regions […] and 1430-1490 cm^−1 were likely to overlap with peaks of interest to follow the conversion between the two crystalline forms of transnorsertraline hydrochloride.
The conversion of anhydrous transnorsertraline hydrochloride to the monohydrate form was monitored in water. […] Based on the peak intensity ratio I(677 cm^−1)/I(695 cm^−1), an induction time of approximately 1.1 hour was seen before the beginning of the conversion. The end of the conversion was estimated at approximately 2 hours from the beginning of the slurry. […] XRPD analysis of the solids collected at the end of the Raman monitoring of the conversion (after approximately 2 h 10 min) was consistent with the hydrate form, with a small amount of anhydrous form detectable. […] Additionally, the Raman limit of detection of the anhydrous form in the mixture was not estimated.
The conversion of anhydrous transnorsertraline hydrochloride to the hydrate form in water, simulated gastric fluid (SGF) and simulated intestinal fluid (SIF) without enzymes, and 0.1N HCl was monitored at 37° C.
Overall, similar results were obtained in water and simulated gastric fluid, with the start of the form conversion detected at approximately 1.3 hours, with a slightly faster conversion in simulated gastric fluid compared to water. The complete conversion was estimated to occur within 3 to 4 hours in the two media. […] XPRD analysis of the solids collected at the end of each experiments were consistent with the hydrate form, with or without some anhydrous form present. The small amount of anhydrous form may be due to residual solids on the walls of the vessel at the time of the slurry.

[3] = Stability of transnorsertraline HCl blends with mannitol lots containing mannose, amount of degradant II (open dish 30° C./65% RH, HPLC)
Excerpt: The amount of conjugate degradant leveled off at about two weeks and then slightly declined as stress time increases. Formation of the degradant of formula II also depends on the temperature.
The amount of mannose in mannitol appeared to be the controlling factor, not the type of mannitol used in transnorsertraline HCl formulation (i.e., crystalline vs. spray dried). This was later confirmed from the results obtained using recrystallized mannitol samples spiked with mannose in the stability study of transnorsertraline HCl formulations.
Three recrystallized mannitol lots spiked with mannose were selected for further study based on their % mannose values. Crystalline mannitol and spray dried mannitol were used as controls. The recrystallized spray dried mannitol lot was also used in the study to determine whether the type of mannitol used (crystalline vs. spray dried) was significant. Transnorsertraline HCl blends were made using the selected mannitol lots and placed at 30° C./65% RH under open dish conditions and analyzed initially and then at 2, 4 and 6 weeks using HPLC.

[4] = Stability of isolated degradants of formula (III) fractions
Protocol: Degradation products of active were isolated using semi-preparative HPLC (Zorbax SB-SN, 5 um, 9.2×250 mm; 20% ACN/H2O with 0.1% formic acid as mobile phase, 4 mL/min) with the aforementioned open dish degradation sample. Fractions containing these impurities were neutralized with 0.1 M NH4OAc before drying under vacuum to prevent possible decomposition.
Impurities 3 and 4 share the same molecular weight of 323 with almost identical MS fragmentation pattern. After the isolation and drying process, it was noticed that impurities 3 and 4 were converted to impurities 1 and 2 respectively (by HPLC retention time, MS data and ^1H NMR spectrum).
However, in the presence of NH4OAc, almost 50% of the compounds were converted after 24 hours. Furthermore, it was observed that upon drying under vacuum, Degradants III-c and III-d were converted to Degradants III-a and III-b independent of the presence of NH4OAc. Because the molecular formula difference between Degradants III-c and III-a was one oxygen atom as measured by HR-MS, it was concluded that Degradants […] and III-d were a diasteromeric pair of 4-hydroperoxy transnorsertraline. The conversions from impurity 3 and Degradant III-d to Degradants III-a and III-b may be by a decomposition process of hydroperoxides.

[5] = SIF without enzymes, small scale

impurities (HPLC) ([1]; 25° C./60% RH and 40° C./75% RH, at least 6 months): less than 0.05% | impurities (HPLC) ([1]; 25° C./60% relative humidity, 2 years): less than 0.1% | form conversion completed ([2]; 0.1N HCl): 3 to 4 h | start of form conversion to hydrate ([2]; 0.1N HCl): ~2 h | form conversion completed ([2]; SGF without enzymes): 3 to 4 h | start of form conversion to hydrate ([2]; SGF without enzymes): approximately 1.3 hours | end of form conversion ([2]; SIF without enzymes, large scale): ~36 h | start of form conversion to hydrate ([2]; SIF without enzymes, larger scale): ~19 h | end of form conversion [2, 5]: approximately 12.5 hours | start of form conversion to hydrate [2, 5]: approximately 10 hours | induction time before the beginning of the conversion to monohydrate ([2]; slurry in water, Raman peak ratio I(677)/I(695)): approximately 1.1 hour | end of the conversion to monohydrate ([2]; slurry in water, from the beginning of the slurry): approximately 2 hours | form conversion completed ([2]; water): 3 to 4 h | start of form conversion to hydrate ([2]; water): approximately 1.3 hours
Compound: transnorsertraline hydrochloride anhydrate

behaviour of degradant at higher temperature [3]: underwent decomposition
Compound: OCC1OC(NC2CCC(c3ccc(Cl)c(Cl)c3)c3ccccc32)C(O)C(O)C1O (centres unmarked) [degradant of formula II]

compound converted ([4]; in the presence of NH4OAc, after 24 hours): ~50% | stability of freshly isolated fractions ([4]; without NH4OAc, a few days at room temperature): relatively stable
Compound: N[C@@H]1CCC(OO)(c2ccc(Cl)c(Cl)c2)c2ccccc21 (single isomer, unassigned) [III-d, 4-hydroperoxy transnorsertraline]
